This is an account of results in patent US11518760B2 (Liverpool School of Tropical Medicine, priority 2017, dated 2022).

Bounds are passed on as bounds.

The assay deals with C6/36 Aedes albopictus cell line infected with Wolbachia pipientis (Wolbachia strain wAlbB). Nature of the assay: In vitro insect cell line assay (anti-Wolbachia screen, SYTO 11 high content imaging). The format is cell-based. Particulars: 168 h; C6/36 Aedes albopictus cells infected with Wolbachia pipientis wAlbB, 7 days incubation, SYTO 11 imaging; read-out: In vitro anti-Wolbachia activity. The essentials: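 SYTO 11 staining (15 min), high-content imaging and texture analysis were the read-out on day 7. Before that, C6/36 mosquito cells carrying Wolbachia strain wAlbB were incubated at 26 °C with test compound at 5 μM final, alongside DMSO-only control wells.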
Consider `FC(F)(F)c1ncccc1CNc1ncnc2ccsc12` [Example 103, N-((2-(trifluoromethyl)pyridin-3-yl)methyl)thieno[3,2-d]pyrimidin-4-amine], for which the EC50 was in the range of 10 to 100 nM.

On to `FC(F)(F)c1ncccc1CNc1nc(N2CCC2)nc2ncccc12` [Example 163, 2-(azetidin-1-yl)-N-((2-(trifluoromethyl)pyridin-3-yl)methyl)pyrido[2,3-d]pyrimidin-4-amine], for which the EC50 lay in the range of 10 to 100 nM.

Regarding `FC(F)(F)c1ccccc1CNc1nc(NC2COC2)nc2ncccc12` [Example 144, N^2-(oxetan-3-yl)-N^4-(2-(trifluoromethyl)benzyl)pyrido[2,3-d]pyrimidine-2,4-diamine], the EC50 lay in the range of 10 to 100 nM.

As for `FC(F)(F)c1ncccc1CNc1nc(N2CCC(C(F)(F)F)CC2)nc2ncccc12` [Example 235, 2-(4-(trifluoromethyl)piperidin-1-yl)-N-((2-(trifluoromethyl)pyridin-3-yl)methyl)pyrido[2,3-d]pyrimidin-4-amine], the EC50 was in the range of 0.01 to 1 nM.

In the case of `CC1(C)CCN1c1nc(NCc2cccnc2C(F)(F)F)c2cccnc2n1` [Example 173, 2-(2,2-dimethylazetidin-1-yl)-N-((2-(trifluoromethyl)pyridin-3-yl)methyl)pyrido[2,3-d]pyrimidin-4-amine], the EC50 was 1 to 10 nM.

For `CC(C)Nc1nc(NCc2ccc(C(F)(F)F)cc2)c2ccccc2n1` [Example 111, N^2-isopropyl-N^4-(4-(trifluoromethyl)benzyl)quinazoline-2,4-diamine], the EC50 fell in the range of 1000 to 100000 nM.

On to `CC1COCCN1c1nc(NCc2cccnc2C(F)(F)F)c2nccnc2n1` (stereo not shown) [Example 309, 2-(3-methylmorpholino)-N-((2-(trifluoromethyl)pyridin-3-yl)methyl)pteridin-4-amine], for which the EC50 is 100 to 1000 nM.

For the compound `FC1(F)CCN(Cc2nc(NCc3ccccc3C(F)(F)F)c3cccnc3n2)CC1` [Example 223], the EC50 is 100 to 1000 nM.

Turning to `FC(F)(F)OC1CCN(c2nc(NCc3cccnc3C(F)(F)F)c3cccnc3n2)C1` (stereo not shown) [Example 297, 2-(3-(trifluoromethoxy)pyrrolidin-1-yl)-N-((2-(trifluoromethyl)pyridin-3-yl)methyl)pyrido[2,3-d]pyrimidin-4-amine], the EC50 was under 0.01 nM.

Consider `CC(O)c1nc(NCc2ccccc2C(F)(F)F)c2sccc2n1` (stereo not shown) [Example 84], for which the EC50 was in the range of 1000 to 100000 nM.

Consider `CN(Cc1ccccc1C(F)(F)F)c1nc(C(F)(F)F)nc2ccsc12` [Example 62, N-methyl-2-(trifluoromethyl)-N-(2-(trifluoromethyl)benzyl)thieno[3,2-d]pyrimidin-4-amine], for which the EC50 was in the range of 10 to 100 nM.

`FC(F)(F)c1ncccc1CNc1nc(N2CCC(Cl)CC2)nc2ncccc12` [Example 199, 2-(4-chloropiperidin-1-yl)-N-((2-(trifluoromethyl)pyridin-3-yl)methyl)pyrido[2,3-d]pyrimidin-4-amine]: the EC50 lay in the range of 1 to 10 nM.

Turning to `FC(F)(F)c1ncccc1CNc1nc(N2CCC(C(F)(F)F)C2)nc2ncccc12` (stereo not shown) [Example 236, N-((2-(trifluoromethyl)pyridin-3-yl)methyl)-2-(3-(trifluoromethyl)pyrrolidin-1-yl)pyrido[2,3-d]pyrimidin-4-amine], the EC50 is under 0.01 nM.

For the compound `FC(F)(F)c1ccccc1CNc1nc(N2CCC(Cl)CC2)nc2ncccc12` [Example 198, 2-(4-chloropiperidin-1-yl)-N-(2-(trifluoromethyl)benzyl)pyrido[2,3-d]pyrimidin-4-amine], the EC50 is 1 to 10 nM.

Regarding `O=C(Nc1cccc(F)c1)Nc1nc(NCc2cccnc2C(F)(F)F)c2cccnc2n1` [Example 205, 1-(3-fluorophenyl)-3-(4-(((2-(trifluoromethyl)pyridin-3-yl)methyl)amino)pyrido[2,3-d]pyrimidin-2-yl)urea], the EC50 is 10 to 100 nM.

Take `CC(C)Nc1nc(NCc2ccc(Cl)cc2)c2sccc2n1` [Example 19, N^4-(4-chlorobenzyl)-N^2-isopropylthieno[3,2-d]pyrimidine-2,4-diamine]: the EC50 was in the range of 1000 to 100000 nM.

As for `FC(F)(F)c1ncccc1CNc1nc(N2CC3CC2CO3)nc2ncccc12` (stereo not shown) [Example 255, 2-(2-oxa-5-azabicyclo[2.2.1]heptan-5-yl)-N-((2-(trifluoromethyl)pyridin-3-yl)methyl)pyrido[2,3-d]pyrimidin-4-amine], the EC50 was in the range of 1 to 10 nM.

Regarding `FC(F)(F)c1ccccc1CNc1nc(Cl)nc2ccsc12` [Example 46, 2-chloro-N-(2-(trifluoromethyl)benzyl)thieno[3,2-d]pyrimidin-4-amine], the EC50 was in the range of 10 to 100 nM.

For `FC1(F)CN(c2nc(NCc3cccnc3C(F)(F)F)c3cccnc3n2)CC(F)(F)O1` [Example 295, 2-(2,2,6,6-tetrafluoromorpholino)-N-((2-(trifluoromethyl)pyridin-3-yl)methyl)pyrido[2,3-d]pyrimidin-4-amine], the EC50 is 10 to 100 nM.

For the compound `FC(F)(F)c1ccccc1CNc1nc(NC2CC2)nc2ccsc12` [Example 43, N^2-cyclopropyl-N^4-(2-(trifluoromethyl)benzyl)thieno[3,2-d]pyrimidine-2,4-diamine], the EC50 lay in the range of 100 to 1000 nM.

For `CC(=O)c1nc(NCc2ccccc2C(F)(F)F)c2sccc2n1` [Example 87], the EC50 is 100 to 1000 nM.

Turning to `FC1(F)CCN(c2nc(N3CCC3c3ccccc3C(F)(F)F)c3cccnc3n2)CC1` (stereo not shown) [Example 213, 2-(4,4-difluoropiperidin-1-yl)-4-(2-(2-(trifluoromethyl)phenyl)azetidin-1-yl)pyrido[2,3-d]pyrimidine], the EC50 fell in the range of 10 to 100 nM.

`FC(F)(F)c1ncccc1CNc1nc(CN2CCC(Cl)CC2)nc2ncccc12` [Example 227, 2-((4-chloropiperidin-1-yl)methyl)-N-((2-(trifluoromethyl)pyridin-3-yl)methyl)pyrido[2,3-d]pyrimidin-4-amine]: the EC50 fell in the range of 100 to 1000 nM.

For the compound `Cc1nc(NC(C)c2ccccc2C(F)(F)F)c2sccc2n1` (stereo not shown) [Example 65, 2-methyl-N-(1-(2-(trifluoromethyl)phenyl)ethyl)thieno[3,2-d]pyrimidin-4-amine], the EC50 is 10 to 100 nM.

Take `CS(=O)(=O)c1ccccc1CNc1ncnc2ccsc12` [Example 97, N-(2-(methylsulfonyl)benzyl)thieno[3,2-d]pyrimidin-4-amine]: the EC50 was 100 to 1000 nM.

In the case of `Fc1ccccc1CNc1nc(Cl)nc2ccsc12` [Example 10], the EC50 lay in the range of 1000 to 100000 nM.

Turning to `O=C1CCCN1CCCNc1nc(NCc2ccccc2C(F)(F)F)c2sccc2n1` [Example 88, 1-(3-((4-((2-(trifluoromethyl)benzyl)amino)thieno[3,2-d]pyrimidin-2-yl)amino)propyl)pyrrolidin-2-one], the EC50 was 1000 to 100000 nM.

Regarding `CC(C)Nc1nc(N2CCOCC2c2ccccc2C(F)(F)F)c2cccnc2n1` (stereo not shown) [Example 187, N-isopropyl-4-(3-(2-(trifluoromethyl)phenyl)morpholino)pyrido[2,3-d]pyrimidin-2-amine], the EC50 lay within 1000 to 100000 nM.

Turning to `CC(C)Nc1nc(N(C)Cc2ccccc2C(F)(F)F)c2sccc2n1` [Example 50, N^2-isopropyl-N^4-methyl-N^4-(2-(trifluoromethyl)benzyl)thieno[3,2-d]pyrimidine-2,4-diamine], the EC50 fell in the range of 10 to 100 nM.

As to `Cc1nc(N(C)C(C)c2ccccc2C(F)(F)F)c2sc(C3(O)COC3)cc2n1` (stereo not shown) [Example 76], the EC50 lay within 1000 to 100000 nM.

For `CC(c1ccccc1C(F)(F)F)N(C)c1nc(C#N)nc2ccsc12` (stereo not shown) [Example 74, 4-(methyl(1-(2-(trifluoromethyl)phenyl)ethyl)amino)thieno[3,2-d]pyrimidine-2-carbonitrile], the EC50 was in the range of 1000 to 100000 nM.

Regarding `FC1(F)CC2(CCN(c3nc(NCc4cccnc4C(F)(F)F)c4cccnc4n3)CC2)C1` [Example 252, 2-(2,2-difluoro-7-azaspiro[3.5]nonan-7-yl)-N-((2-(trifluoromethyl)pyridin-3-yl)methyl)pyrido[2,3-d]pyrimidin-4-amine], the EC50 was in the range of 0.01 to 1 nM.

As to `C[C@@H]1COCCN1c1nc(NCc2ccccc2C(F)(F)F)c2cccnc2n1` [Example 209, (R)-2-(3-methylmorpholino)-N-(2-(trifluoromethyl)benzyl)pyrido[2,3-d]pyrimidin-4-amine], the EC50 lay within 10 to 100 nM.

For `CN(Cc1ccccc1C(F)(F)F)c1nc(Cl)nc2ccsc12` [Example 49, 2-chloro-N-methyl-N-(2-(trifluoromethyl)benzyl)thieno[3,2-d]pyrimidin-4-amine], the EC50 was in the range of 1 to 10 nM.

Take `CC(C)N(C)c1nc(N2CCCCC2c2ccccc2C(F)(F)F)c2cccnc2n1` (stereo not shown) [Example 186, N-isopropyl-N-methyl-4-(2-(2-(trifluoromethyl)phenyl)piperidin-1-yl)pyrido[2,3-d]pyrimidin-2-amine]: the EC50 lay within 1000 to 100000 nM.

Take `CN1CC(Nc2nc(NCc3ccccc3C(F)(F)F)c3cccnc3n2)C1` [Example 142, N^2-(1-methylazetidin-3-yl)-N^4-(2-(trifluoromethyl)benzyl)pyrido[2,3-d]pyrimidine-2,4-diamine]: the EC50 fell in the range of 1000 to 100000 nM.

`CC(C)Sc1nc(NCc2cccnc2C(F)(F)F)c2cccnc2n1` [Example 164, 2-(isopropylthio)-N-((2-(trifluoromethyl)pyridin-3-yl)methyl)pyrido[2,3-d]pyrimidin-4-amine]: the EC50 is 1 to 10 nM.

Take `FC(F)(F)c1ccccc1CNc1ncnc2ccsc12` [Example 23, N-(2-(trifluoromethyl)benzyl)thieno[3,2-d]pyrimidin-4-amine]: the EC50 was in the range of 10 to 100 nM.

On to `FC(F)(F)c1ncccc1CNc1nc(N2CCCCC23CC3)nc2ncccc12` [Example 296, 2-(4-azaspiro[2.5]octan-4-yl)-N-((2-(trifluoromethyl)pyridin-3-yl)methyl)pyrido[2,3-d]pyrimidin-4-amine], for which the EC50 was under 0.01 nM.

As to `FC(F)(F)c1ccccc1CNc1nc(N2CC3CC(C2)O3)nc2ncccc12` [Example 300, 2-(6-oxa-3-azabicyelo[3.1.1]heptan-3-yl)-N-(2-(trifluoromethyl)benzyl)pyrido[2,3-d]pyrimidin-4-amine], the EC50 is under 0.01 nM.
